Results as given in patent publication US12415815B2, “Pyrido[2,3-e]oxazine derivatives as agricultural chemicals” (GLOBACHEM NV, priority 2020, dated 2025).
In brackets after ≈: the same amount, converted by molar mass.

Experiments:
Format in all cases: cell-based
[1] = test system: Alternaria alternata; assay: Fungicidal activity screen in amended agar, 96 well plates, Alternaria alternata; details: Medium N agar, 1,000 spores/mL, 20, 2, 0.2 and 0.02 ppm, room temperature (18° C.), assessed after 3 to 4 days, read-out: Alternaria (fungal growth vs DMSO controls, EC50 ranking)
Method: (§1) Compounds were screened in 96 well plates with 10 compounds per plate. Each compound was screened using agar amended to 20, 2, 0.2 and 0.02 ppm of the test material. Proline at 50 and 10 ppm and 0.2% DMSO were used respectively as positive and negative controls. Each test concentration and standard were tested twice on a plate.
(§2) Compounds were screened against the following three fungal pathogens—Botrytis cinerea, Alternaria alternata and Zymoseptoria tritici. The agar used in the test varied depending on the pathogen with Medium N used for B. cinerea and A. alternata and 1% potato dextrose agar for Z. tritici. For each pathogen sufficient spores were added to the appropriate agar to give 1,000 spores/mL agar of A. alternata, 5,000 spores/ml agar of B. cinerea and 10,000 spores/mL agar of Z. tritici.
(§3) A ×10 stock solution in 2% DMSO was produced for each dose i.e. 200, 20, 2 and 0.2 ppm, and 10 μl of this added to the appropriate wells on the plate. An equivalent amount of 2% DMSO and Proline stock at 500 and 100 ppm were added for the controls. To each well, 90 μl of the appropriate agar spore suspension was added to give the final well concentrations outlined in the first paragraph.
(§4) Plates were incubated at room temperature (18° C.) and assessed after: • a) 3 to 4 days A. alternata and B. cinerea • b) 7 days for Z. tritici
(§5) The amount of fungal growth in each well was compared to the DMSO controls and scored according to the following key: • A—EC50<2 ppm • B—2≤EC50<20 • C—EC50≥20 • D—No activity detected at the highest dose tested • NT—Not tested

[2] = test system: Botrytis cinerea; assay: Fungicidal activity screen in amended agar, 96 well plates, Botrytis cinerea; details: Medium N agar, 5,000 spores/ml, 20, 2, 0.2 and 0.02 ppm, room temperature (18° C.), assessed after 3 to 4 days, read-out: Botrytis (fungal growth vs DMSO controls, EC50 ranking)
Method: as §1, §2, §3, §4, §5

[3] = test system: Zymoseptoria tritici; assay: Fungicidal activity screen in amended agar, 96 well plates, Zymoseptoria tritici; details: 1% potato dextrose agar, 10,000 spores/mL, 20, 2, 0.2 and 0.02 ppm, room temperature (18° C.), assessed after 7 days; for EC50: Zymoseptoria tritici, 168 h, read-out: Zymoseptoria (fungal growth vs DMSO controls, EC50 ranking)
Method: as §1, §2, §3, §4, §5

Molecule	EC50 [1]	EC50 [2]	EC50 [3]	Zymoseptoria (fungal growth vs DMSO controls, EC50 ranking) [3]
COc1ccnc2c(=O)n(-c3nc4ccc(Oc5ccc(F)cc5)cc4s3)c(=S)oc12 [Example 10, 3-(6-(4-Fluorophenoxy)benzo[d]thiazol-2-yl)-8-methoxy-2-thioxo-2,3-dihydro-4H-pyrido[2,3-e][1,3]oxazin-4-one]	< 2 mg/L	2 to 20 mg/L (≈ 4.41 to 44.1 µM)	< 2 mg/L	
COc1ccnc2c(=O)n(-c3nc4ccc(OCC(C)C)cc4s3)c(=S)oc12 [Example 43, 3-(6-isobutoxybenzo[d]thiazol-2-yl)-8-methoxy-2-thioxo-2,3-dihydro-4H-pyrido[2,3-e][1,3]oxazin-4-one]			< 2 mg/L	
COc1ccnc2c(=O)n(-c3nc4ccc(Oc5cccnc5Cl)cc4s3)c(=S)oc12 [Example 36, 3-(6-((2-chloropyridin-3-yl)oxy)benzo[d]thiazol-2-yl)-8-methoxy-2-thioxo-2,3-dihydro-4H-pyrido[2,3-e][1,3]oxazin-4-one]	≥ 20 mg/L	≥ 20 mg/L	< 2 mg/L	
COc1ccnc2c(=O)n(-c3nc4ccc(Oc5cccc(F)c5)cc4s3)c(=S)oc12 [Example 11, 3-(6-(3-Fluorophenoxy)benzo[d]thiazol-2-yl)-8-methoxy-2-thioxo-2,3-dihydro-4H-pyrido[2,3-e][1,3]oxazin-4-one]	2 to 20 mg/L (≈ 4.41 to 44.1 µM)	2 to 20 mg/L (≈ 4.41 to 44.1 µM)	2 to 20 mg/L (≈ 4.41 to 44.1 µM)	
COc1ccnc2c(=O)n(-c3nc4ccc(Oc5ccc(Cl)cc5)cc4s3)c(=S)oc12 [Example 25, 3-(6-(4-Chlorophenoxy)benzo[d]thiazol-2-yl)-8-methoxy-2-thioxo-2,3-dihydro-4H-pyrido[2,3-e][1,3]oxazin-4-one]			< 2 mg/L	
3-(7-chloro-6-(2-chlorophenoxy) benzo[d]thiazol-2-yl)-8-methoxy-2- thioxo-2,3-dihydro-4H-pyrido[2,3- e][1,3]oxazin-4-one [Example 35]				A (EC50<2 ppm)
COc1ccnc2c(=O)n(-c3nc4ccc(Oc5cncc(Cl)c5)cc4s3)c(=S)oc12 [Example 7, 3-(6-((5-Chloropyridin-3-yl)oxy)benzo[d]thiazol-2-yl)-8-methoxy-2-thioxo-2,3-dihydro-4H-pyrido[2,3-e][1,3]oxazin-4-one]	2 to 20 mg/L (≈ 4.25 to 42.5 µM)	2 to 20 mg/L (≈ 4.25 to 42.5 µM)	< 2 mg/L	
COc1ccnc2c(=O)n(-c3nc4ccc(Oc5ccccc5OC(F)(F)F)cc4s3)c(=S)oc12 [Example 39, 8-methoxy-2-thioxo-3-(6-(2-(trifluoromethoxy)phenoxy)benzo[d]thiazol-2-yl)-2,3-dihydro-4H-pyrido[2,3-e][1,3]oxazin-4-one]	≥ 20 mg/L	≥ 20 mg/L	< 2 mg/L	
COc1ccnc2c(=O)n(-c3nc4ccc(N(C)c5cncc(Cl)c5)cc4s3)c(=S)oc12 [Example 33, 3-(6-((5-chloropyridin-3-yl)(methyl)amino)benzo[d]thiazol-2-yl)-8-methoxy-2-thioxo-2,3-dihydro-4H-pyrido[2,3-e][1,3]oxazin-4-one]			2 to 20 mg/L (≈ 4.13 to 41.3 µM)	
COc1ccnc2c(=O)n(-c3nc4ccc(Oc5cncc(C(F)(F)F)c5)cc4s3)c(=O)oc12 [Example 2, 8-Methoxy-3-(6-((5-(trifluoromethyl)pyridin-3-yl)oxy)benzo[d]thiazol-2-yl)-2H-pyrido[2,3-e][1,3]oxazine-2,4(3H)-dione]	2 to 20 mg/L (≈ 4.09 to 40.9 µM)	2 to 20 mg/L (≈ 4.09 to 40.9 µM)	< 2 mg/L	
COc1ccccc1Oc1ccc2nc(-n3c(=S)oc4c(OC)ccnc4c3=O)sc2c1 [Example 30, 8-methoxy-3-(6-(2-methoxyphenoxy)benzo[d]thiazol-2-yl)-2-thioxo-2,3-dihydro-4H-pyrido[2,3-e][1,3]oxazin-4-one]			< 2 mg/L	
COc1ccnc2c(=O)n(-c3nc4ccc(C(=O)OC(C)C)cc4s3)c(=S)oc12 [Example 15, Isopropyl 2-(8-methoxy-4-oxo-2-thioxo-2H-pyrido[2,3-e][1,3]oxazin-3(4H)-yl)benzo[d]thiazole-6-carboxylate]			< 2 mg/L	
COc1ccnc2c(=O)n(-c3nc4ccc(N(C)c5ccccc5Cl)cc4s3)c(=S)oc12 [Example 31, 3-(6-((2-chlorophenyl)(methyl)amino)benzo[d]thiazol-2-yl)-8-methoxy-2-thioxo-2,3-dihydro-4H-pyrido[2,3-e][1,3]oxazin-4-one]			< 2 mg/L	
COc1ccnc2c(=O)n(-c3nc4c(-c5ccccc5)cc(Oc5ccc(F)cc5Cl)cc4s3)c(=S)oc12 [Example 13, 3-(6-(2-Chloro-4-fluorophenoxy)-4-phenylbenzo[d]thiazol-2-yl)-8-methoxy-2-thioxo-2,3-dihydro-4H-pyrido[2,3-e][1,3]oxazin-4-one]			< 2 mg/L	
COc1ccnc2c(=O)n(-c3nc4cnc(Oc5ccc(F)cc5Cl)nc4s3)c(=S)oc12 [Example 14, 3-(5-(2-Chloro-4-fluorophenoxy)thiazolo[5,4-d]pyrimidin-2-yl)-8-methoxy-2-thioxo-2,3-dihydro-4H-pyrido[2,3-e][1,3]oxazin-4-one]			< 2 mg/L	
COc1ccnc2c(=O)n(-c3nc4ccc(C(=O)c5ccccc5)cc4s3)c(=S)oc12 [Example 19, 3-(6-Benzoylbenzo[d]thiazol-2-yl)-8-methoxy-2-thioxo-2,3-dihydro-4H-pyrido[2,3-e][1,3]oxazin-4-one]			2 to 20 mg/L (≈ 4.47 to 44.7 µM)	
COc1ccnc2c(=O)n(-c3nc4ccc(N(C)c5ccc(F)cc5Cl)cc4s3)c(=S)oc12 [Example 16, 3-(6-((2-Chloro-4-fluorophenyl)(methyl)amino)benzo[d]thiazol-2-yl)-8-methoxy-2-thioxo-2,3-dihydro-4H-pyrido[2,3-e][1,3]oxazin-4-one]			< 2 mg/L	
COc1ccnc2c(=O)n(-c3nc4ccc(Oc5ccccc5Cl)cc4s3)c(=S)oc12 [Example 18, 3-(6-(2-Chlorophenoxy)benzo[d]thiazol-2-yl)-8-methoxy-2-thioxo-2,3-dihydro-4H-pyrido[2,3-e][1,3]oxazin-4-one]			< 2 mg/L	
COc1ccnc2c(=O)n(-c3nc4ccc(Oc5ccccc5OCC5CC5)cc4s3)c(=S)oc12 [Example 44, 3-(6-(2-(cyclopropylmethoxy)phenoxy)benzo[d]thiazol-2-yl)-8-methoxy-2-thioxo-2,3-dihydro-4H-pyrido[2,3-e][1,3]oxazin-4-one]			2 to 20 mg/L (≈ 3.96 to 39.6 µM)	
COc1ccnc2c(=O)n(-c3nc4cc(-c5ccccc5Cl)c(Oc5ccc(F)cc5Cl)cc4s3)c(=S)oc12 [Example 12, 3-(6-(2-Chloro-4-fluorophenoxy)-5-(2-chlorophenyl)benzo[d]thiazol-2-yl)-8-methoxy-2-thioxo-2,3-dihydro-4H-pyrido[2,3-e][1,3]oxazin-4-one]			< 2 mg/L	
COc1ccnc2c(=O)n(-c3nc4ccc(Cc5ccccc5)cc4s3)c(=S)oc12 [Example 24, 3-(6-Benzylbenzo[d]thiazol-2-yl)-8-methoxy-2-thioxo-2,3-dihydro-4H-pyrido[2,3-e][1,3]oxazin-4-one]			2 to 20 mg/L (≈ 4.61 to 46.1 µM)	
COc1ccccc1Sc1ccc2nc(-n3c(=S)oc4c(OC)ccnc4c3=O)sc2c1 [Example 45, 8-methoxy-3-(6-((2-methoxyphenyl)thio)benzo[d]thiazol-2-yl)-2-thioxo-2,3-dihydro-4H-pyrido[2,3-e][1,3] oxazin-4-one]			2 to 20 mg/L (≈ 4.15 to 41.5 µM)	
COc1ccnc2c(=O)n(-c3nc4ccc(N(C)c5ccc(Cl)cc5)cc4s3)c(=S)oc12 [Example 32, 3-(6-((4-chlorophenyl)(methyl)amino)benzo[d]thiazol-2-yl)-8-methoxy-2-thioxo-2,3-dihydro-4H-pyrido[2,3-e][1,3]oxazin-4-one]			< 2 mg/L	
COc1ccnc2c(=O)n(-c3nc4ccc(Sc5ccccc5Cl)cc4s3)c(=S)oc12 [Example 34, 3-(6-((2-chlorophenyl)thio)benzo[d]thiazol-2-yl)-8-methoxy-2-thioxo-2,3-dihydro-4H-pyrido[2,3-e][1,3]oxazin-4-one]			< 2 mg/L	
COCCOc1ccccc1Oc1ccc2nc(-n3c(=S)oc4c(OC)ccnc4c3=O)sc2c1 [Example 37, 8-methoxy-3-(6-(2-(2-methoxyethoxy)phenoxy)benzo[d]thiazol-2-yl)-2-thioxo-2,3-dihydro-4H-pyrido[2,3-e][1,3]oxazin-4-one]			2 to 20 mg/L (≈ 3.92 to 39.2 µM)	
COc1ccnc2c(=O)n(-c3nc4ccc(Oc5ccc(C(F)(F)F)cc5)cc4s3)c(=S)oc12 [Example 46, 8-methoxy-2-thioxo-3-(6-(4-(trifluoromethyl)phenoxy)benzo[d]thiazol-2-yl)-2,3-dihydro-4H-pyrido[2,3-e][1,3]oxazin-4-one]			< 2 mg/L	
COc1ccnc2c(=S)n(-c3nc4ccc(Oc5ccccc5Cl)cc4s3)c(=S)oc12 [Example 26, 3-(6-(2-Chlorophenoxy)benzo[d]thiazol-2-yl)-8-methoxy-2H-pyrido[2,3-e][1,3]oxazine-2,4(3H)-dithione]			< 2 mg/L	
